In US10774051B2, “6-membered heterocyclic derivatives and pharmaceutical composition comprising the same” (Shionogi & Co., Ltd., priority 2015, dated 2020):

Target: human P2X7 receptor (Homo sapiens, UniProt Q99572, R270H/Y155H)
Experiment: Evaluation of human P2X7 receptor inhibitory activity (Yo-Pro uptake, BzATP stimulation, FLIPR TETRA)
Format: cell-based
Details: 1321N1 cells stably expressing human P2X7 receptor; BzATP stimulation, Yo-Pro uptake; read-out: IC50 (antagonistic activity for the human P2X7 receptor)
How it was run: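 Yo-Pro dye uptake triggered by BzATP was monitored by FLIPR in human P2X7-transfected 1321N1 cells (SNP variant) in HEPES-buffered HBSS, pH 7.4-7.5. Compound was dispensed 8 min post-stimulation, then signal read for 20 min; IC50 derived logistically from inhibition of the fluorescence range.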

Point of comparison: COc1cn(Cc2ccccc2)c(NCc2cccc(Cl)c2C)nc1=O [Compound I-0121], IC50 280 nM. Against it:
- COc1cn(Cc2ccc(F)c(Cl)c2)c(Oc2cc3sc(C)nc3cc2C)cc1=O [Compound I-0966] — 1.7-fold higher, 480 nM
- COc1cn(Cc2ccccc2C)c(Nc2cccc(C(F)(F)F)c2Cl)nc1=O [Compound I-0014] — within 1.5-fold, 250 nM
- COc1cnc(Nc2cc(C)cc3[nH]ccc23)n(Cc2ccc(F)c(Cl)c2)c1=O [Compound I-0989] — within 1.5-fold, 300 nM
- COc1cn(Cc2cc(F)cc(F)c2)c(Nc2cc3[nH]ncc3cc2C)nc1=O [Compound I-0597] — 14-fold lower, 20 nM
- COc1cc(C)c(Nc2nc(=O)c(F)cn2Cc2cc(F)cc(F)c2)cc1C(C)C [Compound I-1071] — 19-fold lower, 15 nM
- COc1cn(Cc2ccc(F)c(Cl)c2)c(Nc2cc3sc(C)nc3cc2C)nc1=O [Compound I-0033] — 5.7-fold lower, 49 nM

Same assay, conditions: 1321N1 cells stably expressing human P2X7 receptor; BzATP stimulation, Yo-Pro uptake; read-out: IC50 (antagonistic activity for the human P2X7 receptor), class symbol

Compared with COc1cn(Cc2ccccc2COC(F)F)c(Nc2cccc(Cl)c2C)nc1=O [Compound I-0475], COCc1ccccc1Nc1nc(=O)c(OC)cn1Cc1ccc(F)c(Cl)c1 [Compound I-0356] is higher in IC50: < 10 nM for the first, 100 to 500 nM for the second.

COc1cn(Cc2ccc(F)c(Cl)c2)c(Nc2cc(C)c(OC(F)F)cc2C)nc1=O [Compound I-0244] and COc1cn(Cc2ccc(F)c(Cl)c2)c(Nc2cccc(OC(F)F)c2C)nc1=O [Compound I-0511] cannot be ordered by IC50: < 10 nM for the first, < 10 nM for the second.

Compared with COc1cn(Cc2cc(F)cc(Cl)c2)c(Nc2cc3[nH]ncc3cc2C)nc1=O [Compound I-0580], COc1cn(Cc2cc(F)cc(Cl)c2)c(Nc2cc(C)c(C)cc2C)nc1=O [Compound I-0381] is lower in IC50: 10 to 100 nM for the first, < 10 nM for the second. The second is the more potent here.

First: COc1cn(Cc2ccccc2Cl)c(Nc2cc(C)c(C)cc2C)nc1=O [Compound I-0192]
Second: COc1cn(Cc2ccccc2)c(Nc2cc(C)c(C)cc2C)nc1=O [Compound I-0124]
The IC50 of the first is higher: 10 to 100 nM for the first, < 10 nM for the second. The second is the more potent here.

COc1cn(Cc2ccc(Cl)c(F)c2)c(Nc2cc3c(cc2C)OCCO3)nc1=O [Compound I-0293] and COc1cn(Cc2ccc(F)c(Cl)c2)c(Nc2cc(Cl)c(Cl)cc2C)nc1=O [Compound I-0426] fall in the same range of IC50: 10 to 100 nM for the first, 10 to 100 nM for the second.

COc1cn(Cc2ccccc2)c(NCc2ccccc2N(C)C)nc1=O [Compound I-0067] and COc1cn(Cc2ccccc2)c(NCc2ccccc2C(F)(F)F)nc1=O [Compound I-0065] fall in the same range of IC50: 500 to 1000 nM for the first, 500 to 1000 nM for the second.

Cc1cc(C)c(Nc2nc(=O)c(Cl)cn2Cc2ccccc2)cc1C [Compound I-0307] and COc1cn(Cc2cccc(Cl)c2)c(Nc2cc(C)c(C)cc2C)nc1=O [Compound I-0165] cannot be ordered by IC50: < 10 nM for the first, < 10 nM for the second.

COc1cn(Cc2ccccc2)c(Nc2cc(S(=O)(=O)Nc3ccccc3)c(F)cc2C)nc1=O [Compound I-0415] and COc1cn(Cc2ccccc2)c(Nc2cc([N+](=O)[O-])ccc2C)nc1=O [Compound I-0155] fall in the same range of IC50: 500 to 1000 nM for the first, 500 to 1000 nM for the second.

COc1cn(Cc2ccc(F)c(Cl)c2)c(Nc2cc(-n3c(C)ccc3C)ccc2C)nc1=O [Compound I-0526] and COc1cn(Cc2ccc(F)c(Cl)c2)c(Nc2cc(F)c(F)cc2C)nc1=O [Compound I-0360] fall in the same range of IC50: 10 to 100 nM for the first, 10 to 100 nM for the second.

Compared with COc1cn(Cc2ccc(F)c(Cl)c2)c(Nc2cccc(Cl)c2C)nc1=O [Compound I-0166], COc1cn(Cc2ccc(Cl)c(F)c2)c(Nc2cccc(Cl)c2C)nc1=O [Compound I-0280] is higher in IC50: < 10 nM for the first, 10 to 100 nM for the second. The first is the more potent here.

COc1cn(Cc2ccccc2)c(Nc2ccc(Cl)cc2Cl)nc1=O [Compound I-0071] and COc1cn(Cc2ccccc2)c(Nc2cc(Cl)c(Cl)cc2Cl)nc1=O [Compound I-0154] fall in the same range of IC50: 100 to 500 nM for the first, 100 to 500 nM for the second.

First: COc1cn(Cc2cc(F)cc(F)c2)c(Nc2cc(C)c(Cl)cc2C)nc1=O [Compound I-0378]
Second: COc1cn(Cc2cc(F)cc(F)c2)c(Nc2ccc(Cl)cc2C)nc1=O [Compound I-0563]
The IC50 of the first is lower: < 10 nM for the first, 10 to 100 nM for the second. The first is the more potent here.

Cc1c(Cl)cccc1Nc1nc(=O)c(Cl)cn1Cc1ccc(F)c(F)c1 [Compound I-0472] and CCc1ccc(OC)cc1Nc1nc(=O)c(OC)cn1Cc1ccc(F)c(F)c1 [Compound I-0255] cannot be ordered by IC50: < 10 nM for the first, < 10 nM for the second.

First: CCc1ccc(OC)cc1Nc1nc(=O)c(OC)cn1Cc1cccc(F)c1 [Compound I-0251]
Second: CCc1c(Nc2nc(=O)c(OC)cn2Cc2ccccc2)cccc1OC [Compound I-0212]
The IC50 of the first is higher: 10 to 100 nM for the first, < 10 nM for the second. The second is the more potent here.

CCOC(=O)Cc1cn(Cc2ccccc2)c(Nc2cccc(Cl)c2C)nc1=O [Compound I-0023] and Cc1c(Cl)cccc1Nc1nc(=O)c(CC(=O)NC2COC2)cn1Cc1ccccc1 [Compound I-0342] fall in the same range of IC50: 100 to 500 nM for the first, 100 to 500 nM for the second.

COC(=O)c1cccc(Nc2nc(=O)c(OC)cn2Cc2ccccc2)c1C [Compound I-0088] and Cc1c(Cl)cccc1Nc1nc(=O)c(C(=O)NCC#N)cn1Cc1ccccc1 [Compound I-0075] fall in the same range of IC50: 100 to 500 nM for the first, 100 to 500 nM for the second.

COc1cn(Cc2ccccc2)c(Nc2cc(SC(F)(F)F)ccc2C)nc1=O [Compound I-0512] was tested, and the IC50 was 100 to 500 nM.

Same assay, conditions: antagonistic activity for the human P2X7 receptor; read-out: IC50

First: CCOc1cc(C)c(Nc2nc(=O)c(F)cn2Cc2cc(F)c(F)c(F)c2)cc1F [Compound I-1038]
Second: COc1cc(C)c(Nc2nc(=O)c(F)cn2Cc2cc(F)c(F)c(F)c2)cc1F [Compound I-1087]
The IC50 of the first is higher: 10 to 100 nM for the first, < 10 nM for the second. The second is the more potent here.

COc1cn(Cc2cc(F)c(F)c(F)c2)c(Nc2cccc(SC)c2C)nc1=O [Compound I-0704] and COc1cc(C)c(Nc2nc(=O)c(OC)cn2Cc2cc(F)c(F)c(F)c2)cc1OC [Compound I-0623] cannot be ordered by IC50: < 10 nM for the first, < 10 nM for the second.

CN1CCc2c(cccc2Nc2nc(=O)c(F)cn2Cc2cc(F)c(F)c(F)c2)C1 [Compound I-1107] and O=c1nc(Nc2cccc3c2CCN3)n(Cc2cc(F)c(F)c(F)c2)cc1F [Compound I-0995] fall in the same range of IC50: 10 to 100 nM for the first, 10 to 100 nM for the second.

First: COc1cn(Cc2ccccc2)c(Nc2cc(C)c(Cl)cc2F)nc1=O [Compound I-0801]
Second: COc1cn(Cc2ccccc2)c(Nc2cc(S(C)(=O)=O)cc(C)c2C)nc1=O [Compound I-0754]
The IC50 of the first is higher: 100 to 500 nM for the first, 10 to 100 nM for the second.

First: COc1ccc(Nc2nc(=O)c(F)cn2Cc2ccc(F)c(F)c2)c(C)n1 [Compound I-1049]
Second: COCc1ccc(C)c(Nc2nc(=O)c(F)cn2Cc2ccc(F)c(F)c2)c1 [Compound I-1084]
The IC50 of the first is higher: 10 to 100 nM for the first, < 10 nM for the second. The second is the more potent here.

Cc1cc(C)c(Nc2nc(=O)c(F)cn2Cc2cc(F)c(F)c(F)c2)cc1CO [Compound I-1110] and Cc1cc2c(cc1Nc1nc(=O)c(F)cn1Cc1cc(F)c(F)c(F)c1)CCO2 [Compound I-1046] cannot be ordered by IC50: < 10 nM for the first, < 10 nM for the second.

Compared with Cc1nc2cc(C)c(Nc3nc(=O)c(C)nn3Cc3cc(F)cc(F)c3)cc2s1 [Compound I-1260], Cc1ccc(CO)cc1Nc1nc(=O)c(C)nn1Cc1cc(F)c(F)c(F)c1 [Compound I-1254] is lower in IC50: 10 to 100 nM for the first, < 10 nM for the second.

COc1cn(Cc2ccc(F)c(F)c2)c(Nc2cc(S(C)(=O)=O)cc(C)c2C)nc1=O [Compound I-0756] and C=C(C)c1ccc(C)c(Nc2nc(=O)c(OC)cn2Cc2ccc(F)c(F)c2)c1 [Compound I-0747] fall in the same range of IC50: 10 to 100 nM for the first, 10 to 100 nM for the second.

First: Cc1cc(OC(F)F)c(C)cc1Nc1nc(=O)c(Cl)cn1Cc1ccc(F)c(Cl)c1 [Compound I-0837]
Second: COc1cn(Cc2ccc(F)c(Cl)c2)c(Nc2cc3c(cc2C)COC3)nc1=O [Compound I-0906]
The IC50 of the first is lower: < 10 nM for the first, 10 to 100 nM for the second. The first is the more potent here.

Cc1ccc(N2CCCC2=O)cc1Nc1nc(=O)c(F)cn1Cc1cc(F)cc(F)c1 [Compound I-0700] and Cc1ccc(CO)cc1Nc1nc(=O)c(F)cn1Cc1cc(F)cc(F)c1 [Compound I-1014] cannot be ordered by IC50: < 10 nM for the first, < 10 nM for the second.

Compared with O=C1CCCc2c(Nc3nc(=O)c(Cl)cn3Cc3cc(F)c(F)c(F)c3)cccc21 [Compound I-1162], COCc1cn(Cc2cc(F)c(F)c(F)c2)c(Nc2cc(OC)ccc2C)nc1=O [Compound I-1138] is higher in IC50: < 10 nM for the first, 10 to 100 nM for the second. The first is the more potent here.

COc1ccc(C)c(Nc2cc(=O)c(OC)cn2Cc2ccc(F)c(Cl)c2)c1 [Compound I-0947] and COc1ccc(Cl)c(Nc2cc(=O)c(OC)cn2Cc2ccc(F)c(Cl)c2)c1 [Compound I-0955] fall in the same range of IC50: 10 to 100 nM for the first, 10 to 100 nM for the second.

COc1cn(Cc2ccc(F)c(F)c2)c(Nc2cc(-c3ccc(C)o3)ccc2C)nc1=O [Compound I-0767] and COc1cn(Cc2ccc(F)c(F)c2)c(Nc2cc(N3CCCC3=O)ccc2C)nc1=O [Compound I-0646] fall in the same range of IC50: 10 to 100 nM for the first, 10 to 100 nM for the second.

C=C(C)c1ccc(C)c(Nc2nc(=O)c(OC)cn2Cc2ccccc2)c1 [Compound I-0722] and COc1cn(Cc2ccccc2)c(Nc2cc(-c3cccn(C)c3=O)c(F)cc2C)nc1=O [Compound I-0590] fall in the same range of IC50: 10 to 100 nM for the first, 10 to 100 nM for the second.

Cc1cn(Cc2ccc(F)c(F)c2)c(Nc2ccc3[nH]ccc3c2C)nc1=O [Compound I-1168] and Cc1c(Nc2nc(=O)c(F)cn2Cc2cc(F)cc(F)c2)ccc2[nH]ccc12 [Compound I-1119] cannot be ordered by IC50: < 10 nM for the first, < 10 nM for the second.

First: COc1cnc(Nc2cc(C)c(Cl)cc2C)n(Cc2ccccc2)c1=O [Compound I-0981]
Second: COc1cnc(Nc2cccc(Cl)c2C)n(Cc2ccc(F)c(Cl)c2)c1=O [Compound I-0971]
The IC50 of the first is higher: 500 to 1000 nM for the first, 100 to 500 nM for the second. The second is the more potent here.

First: COc1cc(C)c(Nc2nc(=O)c(OC)cn2Cc2cc(F)cc(Cl)c2)cc1Cl [Compound I-0672]
Second: CCc1cc2c(cc1Nc1nc(=O)c(OC)cn1Cc1cc(F)cc(F)c1)OCCO2 [Compound I-0797]
The IC50 of the first is lower: < 10 nM for the first, 10 to 100 nM for the second. The first is the more potent here.

First: Cc1nc2[nH]ccc2cc1Nc1nc(=O)c(F)cn1Cc1ccc(F)c(F)c1 [Compound I-1090]
Second: COc1cn(Cc2ccc(F)c(Cl)c2)c(Nc2cccc3c2ccc(=O)n3C)nc1=O [Compound I-0881]
The IC50 of the first is lower: 10 to 100 nM for the first, 100 to 500 nM for the second. The first is the more potent here.

COc1cn(Cc2ccc(F)c(Cl)c2)c(Nc2ccc(C#N)cc2C)cc1=O [Compound I-0958] and COc1cn(Cc2ccccc2)c(Nc2ccc(Cl)cc2C)cc1=O [Compound I-0950] fall in the same range of IC50: 100 to 500 nM for the first, 100 to 500 nM for the second.

In the case of CCc1cc2c(cc1Nc1nc(=O)c(OC)cn1Cc1ccc(F)c(Cl)c1)OCO2 [Compound I-0688], the IC50 is reported as < 10 nM.
